Data reported in patent US20220235011A1, “PHTHALAZINONE COMPOUNDS AND USE THEREOF” (ST PHARM CO., LTD., priority 2019, published 2022).

target: T1, Sirt6 (Homo sapiens, UniProt Q8N6T7); test: Measurement of Sirt6 Activity (CycLex Sirt6 Deacetylase Fluorometric Assay Kit); assay type: biochemical; details: compound at 10 μM; fluorescence relative to the group without compound treatment (positive control group)
T1 construct: purchased CycLex CY-1156V2
Outline: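 Recombinant Sirt6 with fluoro-labelled acetyl-lysine peptide, NAD and lysylendopeptidase developer, compound added from 10× stock in PBS; 1 h at room temperature. Fluorescence read at ex 490/em 530 nm; activation expressed as fluorescence ratio relative to enzyme without compound.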

T1 sequence (Q8N6T7 whole entry): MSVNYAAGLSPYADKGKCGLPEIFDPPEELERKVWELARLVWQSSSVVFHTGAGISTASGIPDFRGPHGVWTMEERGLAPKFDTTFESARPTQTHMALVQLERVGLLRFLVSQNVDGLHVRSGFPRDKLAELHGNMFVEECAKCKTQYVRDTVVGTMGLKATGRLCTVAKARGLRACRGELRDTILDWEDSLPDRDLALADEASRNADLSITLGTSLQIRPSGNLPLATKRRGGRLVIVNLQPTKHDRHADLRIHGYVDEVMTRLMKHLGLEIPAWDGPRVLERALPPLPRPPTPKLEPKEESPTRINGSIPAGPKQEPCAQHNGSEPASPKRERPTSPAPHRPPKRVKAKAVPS

Sirt6 Activity (% activity, 10 μM) [% activity] | SMILES
205.5 | Cl.N[C@@H]1CCCCN(c2nn(-c3ccc(F)cc3)c(=O)c3ccccc23)C1 [Example 162, (R)-4-(3-Aminoazepan-1-yl)-2-(4-fluorophenyl)phthalazin-1(2H)-one-hydrochloride]
227 | O=c1c2ccccc2c(-c2cccnc2)nn1-c1c(F)cccc1F [Example 116, 2-(2,6-Difluorophenyl)-4-(pyridin-3-yl)phthalazin-1(2H)-one]
184.80 | CCN(C)S(=O)(=O)c1cccc(-c2nn(-c3ccc(F)cc3F)c(=O)c3ccccc23)c1 [Example 216, 3-(3-(2,4-Difluorophenyl)-4-oxo-3,4-dihydrophthalazin-1-yl)-N-ethyl-N-methylbenzenesulfonamide]
263.7 | CS(=O)(=O)c1cccc(-c2nn(C3CCCCC3)c(=O)c3ccccc23)c1 [Example 154, 2-Cyclohexyl-4-(3-(methylsulfonyl)phenyl)phthalazin-1(2H)-one]
259 | CNS(=O)(=O)c1cccc(-c2nn(-c3ccccc3F)c(=O)c3ccccc23)c1 [Example 99, 3-(3-(2-Fluorophenyl)-4-oxo-3,4-dihydrophthalazin-1-yl)-N-methylbenzenesulfonamide]
180 | COC(=O)NS(=O)(=O)Nc1cccc(-c2nn(-c3ccc(F)cc3F)c(=O)c3ccccc23)c1 [Example 26, Methyl (N-(3-(3-(2,4-difluorophenyl)-4-oxo-3,4-dinydrophthalazin-1-yl)phenyl)sulfamoyl)carbamate]
178 | CS(=O)(=O)c1cccc(-c2nn(-c3ccc(F)cc3F)c(=O)c3cc(F)ccc23)c1 [Example 120, 2-(2,4-Difluorophenyl)-7-fluoro-4-(3-(methylsulfonyl)phenyl)phthalazin-1(2H)-one]
173 | CN(c1cccc(-c2nn(-c3ccccc3)c(=O)c3ccccc23)c1)S(C)(=O)=O [Example 7, N-Methyl-N-(3-(4-oxo-3-phenyl-3,4-dihydro-phthalazin-1-yl)phenyl)methanesulfonamide]
219.60 | Cn1cc(NC(=O)C(C)(C)c2cccc(-c3nn(-c4ccc(F)cc4F)c(=O)c4ccccc34)c2)cn1 [Example 182, 2-(3-(3-(2,4-Difluorophenyl)-4-oxo-3,4-dihydrophthalazin-1-yl)phenyl)-2-methyl-N-(1-methyl-1H-pyrazol-4-yl)propanamide]
104.7 | CCS(=O)(=O)Nc1cccc(-c2nn(-c3ccc(F)cc3)c(=O)c3cccc(C)c23)c1 [Example 150, N-(3-(3-(4-Fluorophenyl)-8-methyl-4-oxo-3,4-dihydrophthalazin-1-yl)phenyl)ethanesulfonamide]
277 | CC(C)(C(N)=O)c1cccc(-c2nn(C3CCCCC3)c(=O)c3ccccc23)c1 [Example 163, 2-(3-(3-Cyclohexyl-4-oxo-3,4-dihydrophthalazin-1-yl)phenyl)-2-methylpropanamide]
125 | COC(=O)N(C)S(=O)(=O)N(C)c1cccc(-c2nn(-c3ccc(F)cc3)c(=O)c3ccccc23)c1 [Example 76, Methyl (N-(3-(3-(4-fluorophenyl)-4-oxo-3,4-dihydrophthalazin-1-yl)phenyl)-N-methylsulfamoyl) (methyl)carbamate]
262.7 | CC(C)(/C(N)=N\O)c1cccc(-c2nn(-c3ccc(F)cc3F)c(=O)c3ccccc23)c1 [Example 170, (E)-2-(3-(3-(2,4-Difluorophenyl)-4-oxo-3,4-dihydrophthalazin-1-yl)phenyl)-N′-hydroxy-2-methyl propanimideamide]
162 | O=C(NO)c1cccc(-c2nn(-c3ccc(F)cc3)c(=O)c3ccccc23)c1 [Example 83, 3-(3-(4-Fluorophenyl)-4-oxo-3,4-dihydrophthalazin-1-yl)-N-hydroxybenzamide]
169.10 | CC(C)(C(=O)O)C1CCCN(c2nn(-c3ccc(Cl)cc3)c(=O)c3ccccc23)C1 (stereo not shown) [Example 209, 2-(1-(3-(4-Chlorophenyl)-4-oxo-3,4-dihydrophthalazin-1-yl)piperidin-3-yl)-2-methylpropanoic Acid]
188 | CN(C)S(=O)(=O)c1cccc(-c2nn(-c3c(F)cccc3F)c(=O)c3ccccc23)c1 [Example 109, 3-(3-(2,6-Difluorophenyl)-4-oxo-3,4-dihydrophthalazin-1-yl)-N,N-dimethylbenzenesulfonamide]

Sirt6 Activity (% activity, 10 μM) [% activity] | SMILES
132 | CC(C)(C)/[N+]([O-])=C/c1ccc(-c2nn(-c3ccc(F)cc3)c(=O)c3ccccc23)s1 [Example 47, (Z)—N-tert-Butyl-1-(5-(3-(4-fluorophenyl)-4-oxo-3,4-dihydrophthalazin-1-yl)thiophen-2-yl)methanimine Oxide]
177 | O=C1OCCN1c1cccc(-c2nn(-c3ccc(F)cc3)c(=O)c3ccccc23)c1 [Example 161, 3-(3-(3-(4-Fluorophenyl)-4-oxo-3,4-dihydrophthalazin-1-yl)phenyl)oxazolidin-2-one]
118 | CC(C)/[N+]([O-])=C/c1cccc(-c2nn(-c3ccc(-c4ccccc4)cc3)c(=O)c3ccccc23)c1 [Example 85, (Z)-1-(3-(3-([1,1′-Biphenyl]-4-yl)-4-oxo-3,4-dihydrophthalazin-1-yl)phenyl)-N-isopropylmethanimine Oxide]
115 | CC(C)/[N+]([O-])=C/c1ccc(F)c(-c2nn(-c3ccc(F)cc3)c(=O)c3ccccc23)c1 [Example 56, (Z)-1-(4-Fluoro-3-(3-(4-fluorophenyl)-4-oxo-3,4-dihydrophthalazin-1-yl)phenyl)-N-isopropylmethanimine Oxide]
106 | CCS(=O)(=O)Nc1cccc(-c2nn(-c3ccc(-c4ccccc4)cc3)c(=O)c3ccccc23)c1 [Example 64, N-(3-(3-([1,1′-Biphenyl]-4-yl)-4-oxo-3,4-dihydrophthalazin-1-yl)phenyl)ethane Sulfonamide]
185 | NS(=O)(=O)c1cccc(-c2nn(-c3ccc(F)cc3F)c(=O)c3ccccc23)c1 [Example 126, 3-(3-(2,4-Difluorophenyl)-4-oxo-3,4-dihydrophthalazin-1-yl)benzenesulfonamide]
100 | CCS(=O)(=O)Nc1ccc(-c2nn(-c3ccccc3)c(=O)c3ccccc23)cc1 [Example 8, N-(4-(4-Oxo-3-phenyl-3,4-dihydrophthalazin-1-yl)phenyl)ethanesulfonamide]
109 | O=c1c2ccccc2c(-c2ccc(Cl)c([N+](=O)[O-])c2)nn1-c1ccc(F)cc1 [Example 59, 4-(4-Chloro-3-nitrophenyl)-2-(4-fluorophenyl)phthalazin-1(2H)-one]
209 | CN(c1cccc(-c2nn(-c3ccc(F)cc3)c(=O)c3ccccc23)c1)S(C)(=O)=O [Example 69, N-(3-(3-(4-Fluorophenyl)-4-oxo-3,4-dihydrophthalazin-1-yl)phenyl)-N-methylmethane Sulfonamide]
286 | CS(=O)(=O)c1cccc(-c2nn(-c3ccccc3F)c(=O)c3ccccc23)c1 [Example 97, 2-(2-Fluorophenyl)-4-(3-(methylsulfonyl)phenyl)phthalazin-1(2H)-one]
286.60 | CC(=O)N[C@@H]1CCCCN(c2nn(-c3ccc(F)cc3F)c(=O)c3ccccc23)C1 [Example 192, (R)—N-(1-(3-(2,4-Difluorophenyl)-4-oxo-3,4-dihydrophthalazin-1-yl)azepan-3-yl)acetamide]
172 | CN(C)S(=O)(=O)c1cccc(-c2nn(-c3ccc(F)cc3F)c(=O)c3ccc(F)cc23)c1 [Example 125, 3-(3-(2,4-Difluorophenyl)-7-fluoro-4-oxo-3,4-dihydrophthalazin-1-yl)-N,N-dimethylbenzenesulfonamide]
312.70 | Cl.O=c1c2ccccc2c(N2CCCC[C@@H](NCCO)C2)nn1-c1ccc(F)cc1F [Example 191, (R)-2-(2,4-Difluorophenyl)-4-(3-((2-hydroxyethyl)amino)azepan-1-yl)phthalazin-1(2H)-one-hydro Chloride]
127.7 | CCS(=O)(=O)N[C@H]1CCCN(c2nn(C3CCCCC3)c(=O)c3ccccc23)C1 [Example 147, (S)—N-(1-(3-Cyclohexyl-4-oxo-3,4-dihydrophthalazin-1-yl)piperidin-3-yl)ethanesulfonamide]
142 | O=c1c2ccccc2c(-c2cccc(/C=[N+](\[O-])Cc3ccccc3)c2)nn1-c1ccc(F)cc1 [Example 44, (Z)—N-Benzyl-1-(3-(3-(4-fluorophenyl)-4-oxo-3,4-dihydrophthalazin-1-yl)phenyl)methanimine Oxide]
196 | CCNS(=O)(=O)c1cccc(-c2nn(-c3ccccc3F)c(=O)c3ccccc23)c1 [Example 100, N-Ethyl-3-(3-(2-fluorophenyl)-4-oxo-3,4-dihydrophthalazin-1-yl)benzenesulfonamide]

same assay, conditions: compound at 10 μM; fluorescence relative to the group without compound treatment (positive control group); 10 µM

Sirt6 Activity (% activity, 10 μM) [% activity] | SMILES
100.50 | CC(C)(C(=O)O)C1CCCN(c2nn(-c3ccc(F)cc3F)c(=O)c3ccccc23)C1 (stereo not shown) [Example 210-2, 2-(1-(3-(2,4-Difluorophenyl)-4-oxo-3,4-dihydrophthalazin-1-yl)piperidin-3-yl)-2-methylpropanoic Acid]
199.00 | CC(C)(C(=O)O)C1CCCN(c2nn(-c3ccc(F)cc3F)c(=O)c3ccccc23)C1 (stereo not shown) [Example 210-1, 2-(1-(3-(2,4-Difluorophenyl)-4-oxo-3,4-dihydrophthalazin-1-yl)piperidin-3-yl)-2-methylpropanoic Acid]
